Results: PubChem BioAssay AID1963962 (Molecular Pharmacology Branch, DTP, NCI, 2024)

Test system: 967376-340-R-J2-PDC multicell spheroid viability
Assay: Anticancer human tumor 967376-340-R-J2-PDC patient-derived colon adenocarcinoma cell line growth inhibition [PI3K]
Conditions: for IC50: curve of first compound; for viability, T/C: stronger effect = lower value
In short: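 Stroma-containing spheroids: tumor line, pooled-donor HUVEC, hMSC. Treatments: targeted agents with PI3K inhibitors. Dosing: clinically relevant, half-log spacing, 10 microM ceiling without known Cmax. Read-out: cell viability.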

[1] = second compound 0.0316 µM, first compound 0.0316 µM
[2] = second compound 0.0316 µM, first compound 0.1 µM
[3] = second compound 0.0316 µM, first compound 0.316 µM
[4] = second compound 0.0316 µM, first compound 1 µM
[5] = second compound 0.1 µM, first compound 0.0316 µM
[6] = second compound 0.1 µM, first compound 0.1 µM
[7] = second compound 0.1 µM, first compound 0.316 µM
[8] = second compound 0.1 µM, first compound 1 µM
[9] = second compound 0.316 µM, first compound 0.0316 µM
[10] = second compound 0.316 µM, first compound 0.1 µM
[11] = second compound 0.316 µM, first compound 0.316 µM
[12] = second compound 0.316 µM, first compound 1 µM
[13] = second compound 1 µM, first compound 0.0316 µM
[14] = second compound 1 µM, first compound 0.1 µM
[15] = second compound 1 µM, first compound 0.316 µM
[16] = second compound 1 µM, first compound 1 µM
[17] = second compound 3.16 µM, first compound 0.0316 µM
[18] = second compound 3.16 µM, first compound 0.1 µM
[19] = second compound 3.16 µM, first compound 0.316 µM
[20] = second compound 3.16 µM, first compound 1 µM
[21] = second compound 10 µM, first compound 0.0316 µM
[22] = second compound 10 µM, first compound 0.1 µM
[23] = second compound 10 µM, first compound 0.316 µM
[24] = second compound 10 µM, first compound 1 µM
[25] = second compound 0.0316 µM, first compound 0.00316 µM
[26] = second compound 0.0316 µM, first compound 0.01 µM
[27] = second compound 0.1 µM, first compound 0.00316 µM
[28] = second compound 0.1 µM, first compound 0.01 µM
[29] = second compound 0.316 µM, first compound 0.00316 µM
[30] = second compound 0.316 µM, first compound 0.01 µM
[31] = second compound 1 µM, first compound 0.00316 µM
[32] = second compound 1 µM, first compound 0.01 µM
[33] = second compound 3.16 µM, first compound 0.00316 µM
[34] = second compound 3.16 µM, first compound 0.01 µM
[35] = second compound 10 µM, first compound 0.00316 µM
[36] = second compound 10 µM, first compound 0.01 µM
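Note: spheroids exposed to agents for 7 days before read-out.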
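Throughout, for viability, T/C: luminescence used as surrogate of cell viability.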

For `CC(C)NCC(C(=O)N1CCN(c2ncnc3c2C(C)CC3O)CC1)c1ccc(Cl)cc1` (stereo unspecified) + CC(Nc1ncnc2nc[nH]c12)c1cc2cccc(Cl)c2c(=O)n1-c1ccccc1, the IC50 (second compound 0.0316 µM) was > 10000 nM, the IC50 (second compound 0.1 µM) was > 10000 nM and the IC50 (second compound 0.316 µM) was > 10000 nM. For the same compound, the IC50 (second compound 1 µM) was > 10000 nM, the IC50 (second compound 3.16 µM) was > 10000 nM and the IC50 (second compound 10 µM) was > 10000 nM. It also gave a viability, T/C [1] of 100%, a viability, T/C [2] of 80.4% and a viability, T/C [3] of 101%. For the same compound, the viability, T/C [4] was 96.1%, the viability, T/C (second compound 0.0316 µM, first compound 3.16 µM) was 88.6% and the viability, T/C (second compound 0.0316 µM, first compound 10 µM) was 86.5%. For the same compound, the viability, T/C [5] was 102%, the viability, T/C [6] was 85% and the viability, T/C [7] was 85.4%. For the same compound, the viability, T/C [8] was 83.5%, the viability, T/C (second compound 0.1 µM, first compound 3.16 µM) was 84.8% and the viability, T/C (second compound 0.1 µM, first compound 10 µM) was 65.1%. The viability, T/C [9] was 111%, the viability, T/C [10] was 104% and the viability, T/C [11] was 101%. It also gave a viability, T/C [12] of 96.7%, a viability, T/C (second compound 0.316 µM, first compound 3.16 µM) of 90.7% and a viability, T/C (second compound 0.316 µM, first compound 10 µM) of 78.5%. For the same compound, the viability, T/C [13] was 84.2%, the viability, T/C [14] was 90.5% and the viability, T/C [15] was 83.9%. For the same compound, the viability, T/C [16] was 102%, the viability, T/C (second compound 1 µM, first compound 3.16 µM) was 87.4% and the viability, T/C (second compound 1 µM, first compound 10 µM) was 77.1%. The viability, T/C [17] was 94%, the viability, T/C [18] was 64.8% and the viability, T/C [19] was 77.5%. For the same compound, the viability, T/C [20] was 91.1%, the viability, T/C (second compound 3.16 µM, first compound 3.16 µM) was 93.1% and the viability, T/C (second compound 3.16 µM, first compound 10 µM) was 79.4%. It also gave a viability, T/C [21] of 94.8%, a viability, T/C [22] of 90.5% and a viability, T/C [23] of 68.4%. For the same compound, the viability, T/C [24] was 94.2%, the viability, T/C (second compound 10 µM, first compound 3.16 µM) was 76.2% and the viability, T/C (second compound 10 µM, first compound 10 µM) was 86.9%.

`CCN1CCN(Cc2ccc(Nc3ncc(F)c(-c4cc(F)c5nc(C)n(C(C)C)c5c4)n3)nc2)CC1` + CC(Nc1ncnc2nc[nH]c12)c1cc2cccc(Cl)c2c(=O)n1-c1ccccc1 was tested, and the IC50 (second compound 0.0316 µM) was > 1000 nM, the IC50 (second compound 0.1 µM) was > 1000 nM and the IC50 (second compound 0.316 µM) was > 1000 nM. The IC50 (second compound 1 µM) was > 1000 nM, the IC50 (second compound 3.16 µM) was > 1000 nM and the IC50 (second compound 10 µM) was > 1000 nM. For the same compound, the viability, T/C [25] was 93.1%, the viability, T/C [26] was 95.1% and the viability, T/C [1] was 91.3%. It also gave a viability, T/C [2] of 73.8%, a viability, T/C [3] of 88.5% and a viability, T/C [4] of 70.1%. It also gave a viability, T/C [27] of 103%, a viability, T/C [28] of 106% and a viability, T/C [5] of 74.9%. It also gave a viability, T/C [6] of 87.9%, a viability, T/C [7] of 74.4% and a viability, T/C [8] of 86.8%. The viability, T/C [29] was 113%, the viability, T/C [30] was 95.7% and the viability, T/C [9] was 100%. The viability, T/C [10] was 83.9%, the viability, T/C [11] was 79.5% and the viability, T/C [12] was 65.1%. The viability, T/C [31] was 111%, the viability, T/C [32] was 87% and the viability, T/C [13] was 86.8%. It also gave a viability, T/C [14] of 80%, a viability, T/C [15] of 78.6% and a viability, T/C [16] of 58.6%. It also gave a viability, T/C [33] of 95.7%, a viability, T/C [34] of 77.7% and a viability, T/C [17] of 94.5%. The viability, T/C [18] was 72.6%, the viability, T/C [19] was 75.9% and the viability, T/C [20] was 60%. The viability, T/C [35] was 92%, the viability, T/C [36] was 85.9% and the viability, T/C [21] was 72%. For the same compound, the viability, T/C [22] was 62%, the viability, T/C [23] was 67.3% and the viability, T/C [24] was 48.6%.

For `Cn1ncnc1[C@H]1c2n[nH]c(=O)c3cc(F)cc(c23)N[C@@H]1c1ccc(F)cc1` + CC(Nc1ncnc2nc[nH]c12)c1cc2cccc(Cl)c2c(=O)n1-c1ccccc1, the IC50 (second compound 0.0316 µM) was > 100 nM, the IC50 (second compound 0.1 µM) was > 100 nM and the IC50 (second compound 0.316 µM) was > 100 nM. The IC50 (second compound 1 µM) was > 100 nM, the IC50 (second compound 3.16 µM) was > 100 nM and the IC50 (second compound 10 µM) was > 100 nM. The viability, T/C (second compound 0.0316 µM, first compound 0.000316 µM) was 111%, the viability, T/C (second compound 0.0316 µM, first compound 0.001 µM) was 114% and the viability, T/C [25] was 90%. It also gave a viability, T/C [26] of 107%, a viability, T/C [1] of 84.7% and a viability, T/C [2] of 86.7%. The viability, T/C (second compound 0.1 µM, first compound 0.000316 µM) was 103%, the viability, T/C (second compound 0.1 µM, first compound 0.001 µM) was 94.2% and the viability, T/C [27] was 102%. The viability, T/C [28] was 109%, the viability, T/C [5] was 93.4% and the viability, T/C [6] was 89.5%. The viability, T/C (second compound 0.316 µM, first compound 0.000316 µM) was 83.5%, the viability, T/C (second compound 0.316 µM, first compound 0.001 µM) was 96.5% and the viability, T/C [29] was 78.6%. The viability, T/C [30] was 83.4%, the viability, T/C [9] was 102% and the viability, T/C [10] was 79.2%. For the same compound, the viability, T/C (second compound 1 µM, first compound 0.000316 µM) was 122%, the viability, T/C (second compound 1 µM, first compound 0.001 µM) was 84.7% and the viability, T/C [31] was 87.2%. The viability, T/C [32] was 91.7%, the viability, T/C [13] was 108% and the viability, T/C [14] was 104%. It also gave a viability, T/C (second compound 3.16 µM, first compound 0.000316 µM) of 73.7%, a viability, T/C (second compound 3.16 µM, first compound 0.001 µM) of 73.8% and a viability, T/C [33] of 89.6%. The viability, T/C [34] was 71.1%, the viability, T/C [17] was 83.3% and the viability, T/C [18] was 87.8%. It also gave a viability, T/C (second compound 10 µM, first compound 0.000316 µM) of 89.5%, a viability, T/C (second compound 10 µM, first compound 0.001 µM) of 102% and a viability, T/C [35] of 81.5%. It also gave a viability, T/C [36] of 76.4%, a viability, T/C [21] of 78% and a viability, T/C [22] of 73.5%.
